# “Also recorded” adds a separate entry of the source.
# Key:
# solubility = format: physicochemical; conditions: co-crystallization solution
# Protocol: Lyophilized porcine pepsin A (Worthington Biochemical Corporation) was dissolved in water at 200 mg/mL. All ligand stock solutions, except for saquinavir mesylate, were prepared as saturated solutions in DMSO in order to dissolve the maximal amount of ligand. The solutions were centrifuged and an appropriate volume of the supernatant was added to the pepsin solution so that final mixture contained 1.6% of the ligand stock by volume. The mixtures were incubated at room temperature for 1 h, centrifuged for 10 min at 31,000 rcf, and the supernatant was used for crystallization experiments. […] In order to maximize the solubility of saquinavir in the crystallization solution, we tested solutions from the CryoSol screen (Molecular Dimensions) (PMID 28626721). Mixture SM2 consisting of 37.5% v/v dioxane, 25% v/v DMSO, 12.5% v/v ethylene glycol, 12.5% v/v 1,2-propanediol, and 12.5% v/v glycerol allowed us to increase the amount of ligand solution in the co-crystallization mixture without damaging the protein. The saturated solution of saquinavir in SM2 was treated in the same manner as solutions of other ligands except that its amount in the solution with pepsin was increased to 5% by volume.
# [1] = tested on: mouse model of laryngopharyngeal reflux (LPR); experiment: in vivo mouse model of LPR (laryngeal wounding and pepsin instillation, H&E histology); conditions: for laryngeal histology (H&E) / pepsin-mediated laryngeal injury: pepsin pH7 group; for laryngeal histology (H&E): solvent (saline/PBS pH7) group
# Source text: An in vivo mouse model of direct application of pepsin, to mimic laryngeal exposure during LPR, and treatment with select HIV protease inhibitors by either gavage (oral systemic delivery) or aerosolized delivery (inhaled local delivery) was used. […] Each group contained 3 mice. Six-week-old female Jackson A/J mice (Jackson Laboratory, Bar Harbor, ME), weighed one day after arrival, then weekly, on Mondays thereafter.
# Avertin was the preferred anesthetic for the brief application time needed as it has a rapid induction, produces a short surgical anesthesia, and has a rapid recovery. […] For this experiment, isoflurane inhalation was used. The isoflurane, self-scavenging machine, was operated at 3% isoflurane with 2.5 liters of air per minute (LPM). The induction chamber was charged for 3-5 minutes prior to the mice being anesthetized. Mice were placed in the induction chamber for 3-5 minutes prior to any wounding or administrations. Anesthesia records were kept according to IACUC policy.
# Animals secured by a copper wire attached to the board from which the mice were suspended by their upper teeth. This caused the lower jaw to fall open naturally, exposing the larynx and permitting visualization with a Zeiss microscope at 6× magnification. […] Under direct visualization, the subglottis, glottis, and supraglottis regions were superficially scratched interiorly from distal to proximal as the needle was pulled out gently, making a mild abrasion. This procedure was performed twice, with one week between woundings.
# To examine the effect pepsin at acid and nonacid pH, animals were treated for 2 weeks with laryngeal instillation of pepsin (20 μL at 0.3 mg/ml, pH 7.0 or pH 4.0) at 24, 48, and 72 h post wounding procedure. During weeks 3 and 4, animals were treated with laryngeal instillation for 3 days per week. Mice were sacrificed and samples collected on Friday of the fourth week.
# The twelve mice in the aerosol groups were condition in the nose-only exposure chamber (Intox) on three separate days by exposure to dry air for 10 min. Beginning the Monday (day 1) of the next week, aerosols and gavages were performed on the mice Monday through Friday (5 exposures). The aerosols and gavages continued Monday-Friday for three more weeks, with the final week consisting of 4 total exposure days, Monday-Thursday, (19 total) with the mice sacrificed and tissues harvested on Friday. Each mouse received two woundings and 12 solvent or pepsin administrations. Wounding and intratracheal administrations were concurrent with the aerosol and gavage treatments. The first wounding was performed on day 2, followed by solvent or pepsin administrations on days 3, 4, and 5. The second wounding was performed on day 8, followed by solvent or pepsin administrations on days 9, 10, and 11. In weeks 3 and 4, mice received solvent or pepsin administrations on days 16, 17, and 18 and days 23, 24, and 25. Day 26 was sacrifice and tissue harvest.
# A 10 mL suspension of drug in ethanol was placed in the baffle, such that the concentration would remain constant at the equilibrium solubility. Droplets of ethanol containing dissolve drug were generated by an ultrasonic atomizer (nominal frequency 1.7 MHz) entrained by air at a flow rate of 0.5 LPM with a custom-built glass baffle (University of Minnesota, Department of Chemistry Glass Shop). The aerosol cloud was then passed through a cylindrical drying column containing an annular ring of charcoal. The ethanol is removed and the emanating dry aerosol particles of pure drug were then directed into the exposure chamber.
# The mass deposited on the filters in a fixed collection time was measured gravimetrically, and with the collection time, allowed calculation of the total output rate (mg/min). The aerosol concentration (mass/volume of air) was calculated by dividing the total output rate by the air flow rate (0.5 LPM).
SMILES,solubility (solubility),"pepsin-mediated laryngeal injury (multi-layered, reactive epithelia and cell apoptosis) ([1]; aerosol, 12 mg/kg/d)",laryngeal histology (H&E) / pepsin-mediated laryngeal injury ([1]; aerosol),laryngeal histology (H&E) ([1]; aerosol),laryngeal histology (H&E) / pepsin-mediated laryngeal injury ([1]; gavage),"laryngeal histology (H&E) / pepsin-mediated laryngeal injury ([1]; gavage, listed as Darunavir)",laryngeal histology (H&E) ([1]; gavage)
"CC(C)(C)NC(=O)[C@@H]1C[C@@H]2CCCC[C@@H]2CN1C[C@@H](O)[C@H](Cc1ccccc1)NC(=O)[C@H](CC(N)=O)NC(=O)c1ccc2ccccc2n1 [saquinavir, (2S)—N-[(2S,3R)-4-[(3 S,4aS,8aS)-3-(tert-butylcarbamoyl)-3,4,4a,5,6,7,8,8a-octahydro-1H-isoquinolin-2-yl]-3-hydroxy-1-phenylbutan-2-yl]-2-(quinoline-2-carbonylamino)butanediamide]",low solubility,,,,,,
"CC(C)CN(C[C@@H](O)[C@H](Cc1ccccc1)NC(=O)O[C@H]1CO[C@H]2OCC[C@H]21)S(=O)(=O)c1ccc(N)cc1 [darunavir, [(3a S,4R,6aR)-2,3,3a,4,5,6a-hexahydrofuro[2,3-b]furan-4-yl] N-[(2S,3R)-4-[(4-aminophenyl)sulfonyl-(2-methylpropyl)amino]-3-hydroxy-1-phenylbutan-2-yl]carbamate]",,effective in preventing pepsin mediated injury,normal histology; also recorded: mild protection against pepsin-mediated damage,normal histology,appeared similar,mild reactive epithelia in the pepsin group but less than pepsin control,"mild reactive epithelia in the solvent group, but less than pepsin control; also recorded: mild reactivity (rare intraepithelial lymphocytes)"
